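All cell lines were grown in 96-well plates and treated with compound for 48 hours. GI50 = concentration required for 50% inhibition of growth.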 The source made the active and inactive calls. Cut-off read from the data, not from the text of the source: active = GI50 up to about 1.1 µM and inactive = higher.
Columns and labels:
Assay in all cases: NCI-60 cell line screen, 48 h
A498 = system: A498
OVCAR-5 = system: OVCAR-5
PC-3 = system: PC-3
SF-268 = system: SF-268
SNB-19 = system: SNB-19
ACHN = system: ACHN
OVCAR-8 = system: OVCAR-8
CAKI-1 = system: CAKI-1
MDA-N = system: MDA-N
MDA-MB-231 = system: MDA-MB-231
HOP-18 = system: HOP-18
M19-MEL = system: M19-MEL
SNB-78 = system: SNB-78
DLD-1 = system: DLD-1
DMS-273 = system: DMS-273
XF498 = system: XF498
KM-20L2 = system: KM-20L2
DMS-114 = system: DMS-114
NCI-H226 = system: NCI-H226
LXFL 529 = system: LXFL 529

| Compound | GI50 (A498) | GI50 (OVCAR-5) | GI50 (PC-3) | GI50 (SF-268) | GI50 (SNB-19) | GI50 (ACHN) | GI50 (OVCAR-8) | GI50 (CAKI-1) | GI50 (MDA-N) | GI50 (MDA-MB-231) | GI50 (HOP-18) | GI50 (M19-MEL) | GI50 (SNB-78) | GI50 (DLD-1) | GI50 (DMS-273) | GI50 (XF498) | GI50 (KM-20L2) | GI50 (DMS-114) | GI50 (NCI-H226) | GI50 (LXFL 529) |
| --- | --- | --- | --- | --- | --- | --- | --- | --- | --- | --- | --- | --- | --- | --- | --- | --- | --- | --- | --- | --- |
| CCOC(=O)C1=C(C)N(c2ccc(OC)cc2)C2(O)C=CC(O)=C3C(=O)c4ccccc4C(=O)C312 (stereo unspecified) | 10.5 µM (inactive) | 15.8 µM (inactive) | 5.53 µM (inactive) | 2.13 µM (inactive) | 13 µM (inactive) | 14.3 µM (inactive) | 14.9 µM (inactive) | 8.38 µM (inactive) | 8.61 µM (inactive) | 14.3 µM (inactive) | – | – | – | – | – | – | – | – | – | – |
| COc1cccc2c1C(=O)c1c(O)c3c(c(O)c1C2=O)CC(O)(C(=O)CO)CC3OC1CC(N)C(I)C(C)O1 (stereo unspecified) | 3.53 µM (inactive) | 13.5 µM (inactive) | – | 15.9 µM (inactive) | 3.12 µM (inactive) | – | 3.58 µM (inactive) | 2.87 µM (inactive) | – | – | 7.96 µM (inactive) | 2.7 µM (inactive) | 25.7 µM (inactive) | 2.54 µM (inactive) | 0.424 µM (active) | 6.64 µM (inactive) | 7.18 µM (inactive) | 1.63 µM (inactive) | 0.787 µM (active) | – |
| Nc1nc2cc(COc3ccc(C(=O)O)cc3)ccc2nc1-c1ccccc1 | – | > 10 µM (inactive) | > 10 µM (inactive) | > 10 µM (inactive) | > 10 µM (inactive) | > 10 µM (inactive) | – | > 10 µM (inactive) | > 10 µM (inactive) | > 10 µM (inactive) | – | – | – | – | – | – | – | – | > 10 µM (inactive) | – |
| c1ccc(C(c2ccccc2)[P+](c2ccccc2)(c2ccccc2)c2ccccc2)cc1 | 2.32 µM (inactive) | 0.933 µM (active) | – | 0.556 µM (active) | 0.526 µM (active) | – | 0.542 µM (active) | 2.69 µM (inactive) | – | – | 0.369 µM (active) | 0.397 µM (active) | 0.612 µM (active) | 2.1 µM (inactive) | 0.349 µM (active) | 0.214 µM (active) | 0.374 µM (active) | 0.324 µM (active) | 0.684 µM (active) | – |
| CCOC(=O)C1=C(C)N(NC(N)=O)C2(O)CCCC(=O)C12C (stereo unspecified) | > 100 µM (inactive) | > 100 µM (inactive) | – | – | > 100 µM (inactive) | > 100 µM (inactive) | > 100 µM (inactive) | > 100 µM (inactive) | – | – | > 100 µM (inactive) | – | > 100 µM (inactive) | 94.4 µM (inactive) | > 100 µM (inactive) | > 100 µM (inactive) | > 100 µM (inactive) | > 100 µM (inactive) | > 100 µM (inactive) | > 100 µM (inactive) |
| Cc1cc(N(CCOS(C)(=O)=O)CCOS(C)(=O)=O)ccc1C=O | 1.85 µM (inactive) | 6.7 µM (inactive) | 20 µM (inactive) | 6.56 µM (inactive) | 10.2 µM (inactive) | 0.379 µM (active) | 10.9 µM (inactive) | 0.127 µM (active) | 11.4 µM (inactive) | 28.5 µM (inactive) | – | – | – | – | – | – | – | – | – | – |
| CSc1nc(SC)c2cnn(CC3CO3)c2n1 (stereo unspecified) | 62.7 µM (inactive) | 17 µM (inactive) | – | 9.73 µM (inactive) | 31.2 µM (inactive) | – | 9.18 µM (inactive) | – | – | – | 20.9 µM (inactive) | 13.6 µM (inactive) | – | 22.3 µM (inactive) | 22.8 µM (inactive) | 22.4 µM (inactive) | 18.2 µM (inactive) | 17.4 µM (inactive) | 17.9 µM (inactive) | – |
| O=C(NN1C(=O)C(Cl)C1c1ccc([N+](=O)[O-])cc1)c1ccccc1O (stereo unspecified) | – | > 100 µM (inactive) | – | > 100 µM (inactive) | 68.1 µM (inactive) | – | > 100 µM (inactive) | – | – | – | – | > 100 µM (inactive) | – | – | – | 93.1 µM (inactive) | > 100 µM (inactive) | > 100 µM (inactive) | – | > 100 µM (inactive) |
| CC(=O)NNc1nc(C)c(C(=O)NNC(=O)C(=O)Nc2ccc([N+](=O)[O-])cc2[N+](=O)[O-])s1 | > 100 µM (inactive) | > 100 µM (inactive) | – | > 100 µM (inactive) | > 100 µM (inactive) | > 100 µM (inactive) | > 100 µM (inactive) | 57.1 µM (inactive) | – | – | – | – | > 100 µM (inactive) | > 100 µM (inactive) | > 100 µM (inactive) | > 100 µM (inactive) | > 100 µM (inactive) | 30.1 µM (inactive) | > 100 µM (inactive) | 93.1 µM (inactive) |

From ChEMBL document CHEMBL1201862, “PubChem BioAssay data set” (2004)
